The text below walks through data of ChEMBL document CHEMBL1201862, “PubChem BioAssay data set” (2004).

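48-hour exposure; five concentrations; linearly interpolated endpoints. GI50: concentration for 50% inhibition of growth.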 Calls of active or inactive are those of the source. Rule as the data show it: active = GI50 up to about 1.1 µM and inactive = higher.

Some test systems named below: OVCAR-5; MOLT-4; HL-60; UACC-257; SF-268; RPMI-8226; MDA-MB-231; NCI-H522; HCT-116; SK-MEL-28; SK-OV-3; COLO 205; KM12; SF-539; SN12C; EKVX; HT-29; OVCAR-3; MDA-MB-435; UACC-62.
What all share (assay): inhibition of tumour cell growth, NCI panel, 48 h

In the case of `N#Cc1cccc(N2C(=O)C3C4C=CC(C3C2=O)C2C(=O)N(c3cccc(C#N)c3)C(=O)C42)c1` (stereo not given), the GI50 was > 63.1 µM (inactive) in the experiment on OVCAR-5; 41.8 µM (inactive) in the experiment with MOLT-4; > 80.9 µM (inactive) in the experiment on HL-60; > 63.1 µM (inactive) with UACC-257; 19.8 µM (inactive) in the experiment on SF-268; > 56.2 µM (inactive) in the experiment with RPMI-8226. Moreover, the GI50 was > 51.5 µM (inactive) with MDA-MB-231; 22.7 µM (inactive) with NCI-H522; 21 µM (inactive) in the experiment with HCT-116; > 63.1 µM (inactive) with SK-MEL-28; 17.1 µM (inactive) in the experiment with SK-OV-3; > 63.1 µM (inactive) in the experiment with COLO 205. For the same compound, the GI50 with KM12 was > 56.2 µM (inactive); with SF-539, 29.3 µM (inactive); with SN12C, > 39.8 µM (inactive); with EKVX, > 100 µM (inactive); with HT-29, > 63.1 µM (inactive); in the experiment with OVCAR-3, > 77.3 µM (inactive). Besides, the GI50 in the experiment on MDA-MB-435 was > 100 µM (inactive); in the experiment on UACC-62, 54 µM (inactive).

Regarding `CC(CO)(CO)/N=C/c1cc(I)cc(I)c1O`, the GI50 in the experiment on OVCAR-5 is 22.3 µM (inactive); in the experiment with MOLT-4, 11.5 µM (inactive); with HL-60, 11.2 µM (inactive); in the experiment on UACC-257, 20.9 µM (inactive); with SF-268 it was 5.62 µM (inactive); in the experiment on RPMI-8226, 21.3 µM (inactive). Further, the GI50 with MDA-MB-231 is 18.7 µM (inactive); with NCI-H522, 19.1 µM (inactive); with HCT-116 it was 14.8 µM (inactive); in the experiment on SK-MEL-28, 16.6 µM (inactive); with SK-OV-3, 13.6 µM (inactive); in the experiment on COLO 205, 17.8 µM (inactive). The GI50 in the experiment with KM12 is 14.5 µM (inactive); in the experiment on SF-539, 14.5 µM (inactive); in the experiment on SN12C, 13.3 µM (inactive); with EKVX it was 19.5 µM (inactive); in the experiment with HT-29, 21.4 µM (inactive); with OVCAR-3 it was 9.79 µM (inactive). Moreover, the GI50 with MDA-MB-435 is 13.5 µM (inactive); with UACC-62, 16 µM (inactive).

`Cc1cc(NC(=O)NC(=O)c2ccccc2NC(=O)C(C)N)ccc1Oc1ncc(Br)cn1` (stereo not given): the GI50 in the experiment on OVCAR-5 is 1.09 µM (active); in the experiment with MOLT-4, 0.23 µM (active); with HL-60 it was 0.0131 µM (active); in the experiment on UACC-257 it was 0.547 µM (active); in the experiment on SF-268, 0.408 µM (active); with RPMI-8226 it was 0.207 µM (active). Also, the GI50 is 0.143 µM (active) with MDA-MB-231; 0.0301 µM (active) in the experiment on NCI-H522; 0.714 µM (active) in the experiment on HCT-116; 0.184 µM (active) in the experiment with SK-MEL-28; 0.0178 µM (active) in the experiment on SK-OV-3; 0.0719 µM (active) in the experiment on COLO 205. Also, the GI50 in the experiment with KM12 is 0.169 µM (active); in the experiment with SF-539, 0.0158 µM (active); in the experiment with SN12C, 0.0885 µM (active); in the experiment with EKVX it was 0.335 µM (active); in the experiment with HT-29, 0.116 µM (active); with OVCAR-3 it was 0.0196 µM (active). The values for the GI50 in the experiment with MDA-MB-435 and in the experiment with UACC-62 were 0.0254 µM (active) and 0.0693 µM (active), respectively.

For `Cc1nc2cccc(F)c2c(=O)n1-c1nnc(C2CC2)s1`, the GI50 with OVCAR-5, in the experiment on MOLT-4, in the experiment with HL-60, in the experiment on UACC-257, in the experiment on SF-268 and in the experiment with RPMI-8226 was > 10 µM (inactive) throughout. Besides, the GI50 in the experiment with MDA-MB-231, in the experiment on NCI-H522, in the experiment with HCT-116, with SK-MEL-28, in the experiment on SK-OV-3 and in the experiment on COLO 205 was > 10 µM (inactive) each time. The GI50 with KM12, in the experiment with SF-539, in the experiment on SN12C, in the experiment with EKVX, in the experiment with HT-29 and in the experiment with OVCAR-3 was > 10 µM (inactive) throughout. In addition, the GI50 in the experiment with MDA-MB-435 and with UACC-62 was > 10 µM (inactive) throughout.

For the compound `C=C1C[C@H](O)[C@H](Br)C(C)(C)C12CCC(C)(Cl)C(Br)C2` (stereo not given in full), the GI50 in the experiment with OVCAR-5 is 0.762 µM (active); with MOLT-4, 0.451 µM (active); with HL-60 it was 0.508 µM (active); in the experiment on UACC-257, 0.526 µM (active); in the experiment with SF-268, 6.87 µM (inactive); in the experiment on RPMI-8226, 0.589 µM (active). The GI50 with MDA-MB-231 was 2.72 µM (inactive); with NCI-H522 it was 3.83 µM (inactive); with HCT-116, 6.38 µM (inactive); in the experiment with SK-MEL-28, 7.74 µM (inactive); in the experiment on SK-OV-3, 3.03 µM (inactive); in the experiment with COLO 205 it was 1.02 µM (active). Further, the GI50 is 1.48 µM (inactive) with KM12; 15.6 µM (inactive) in the experiment on SF-539; 4.37 µM (inactive) in the experiment on SN12C; 0.286 µM (active) in the experiment on EKVX; 0.141 µM (active) in the experiment on HT-29; 4.3 µM (inactive) in the experiment on OVCAR-3. For the same compound, the GI50 in the experiment with MDA-MB-435 was 2.3 µM (inactive); in the experiment with UACC-62, 5.85 µM (inactive).

Turning to `CCN(CC)CC(O)c1ccc2ccc3ccccc3c2c1` (stereo not given), the GI50 is 13.6 µM (inactive) in the experiment with OVCAR-5; 16.4 µM (inactive) in the experiment on MOLT-4; 14.1 µM (inactive) with HL-60; 16.4 µM (inactive) with UACC-257; 17.8 µM (inactive) in the experiment on SF-268; 18.9 µM (inactive) in the experiment on RPMI-8226. For the same compound, the GI50 in the experiment on MDA-MB-231 is 14.5 µM (inactive); with NCI-H522, 15.6 µM (inactive); in the experiment with HCT-116, 15.3 µM (inactive); in the experiment with SK-MEL-28 it was 19.7 µM (inactive); with SK-OV-3 it was 16 µM (inactive); in the experiment on COLO 205 it was 13.9 µM (inactive). Also, the GI50 in the experiment on KM12 was 15.4 µM (inactive); in the experiment with SF-539, 12.6 µM (inactive); in the experiment with SN12C, 16.3 µM (inactive); with EKVX, 14.1 µM (inactive); in the experiment on HT-29, 11.5 µM (inactive); with OVCAR-3, 15.7 µM (inactive). In addition, the values for the GI50 with MDA-MB-435 and in the experiment on UACC-62 were 16.3 µM (inactive) and 15.3 µM (inactive), respectively.

On to `C/C=C(\N=C=S)C(=O)OC1C(COC(C)=O)OC([C@]2(O)CC(=O)C(N)=C(C(=O)O)C2=O)C(O)C1OC1CC(OC)C(O)([C@@H](C)OC(=O)[C@@H](C)CC)C(C)O1` (stereo not given in full), for which the GI50 in the experiment with OVCAR-5 is 20.7 µM (inactive); in the experiment with MOLT-4, 2.44 µM (inactive); with HL-60 it was 2.12 µM (inactive); in the experiment on UACC-257 it was 15.4 µM (inactive); with SF-268 it was 9.57 µM (inactive); in the experiment with RPMI-8226, 2.11 µM (inactive). Besides, the GI50 is 19.6 µM (inactive) in the experiment with MDA-MB-231; 2.17 µM (inactive) in the experiment with NCI-H522; 7.83 µM (inactive) in the experiment on HCT-116; 7.66 µM (inactive) in the experiment on SK-MEL-28; 21.5 µM (inactive) with SK-OV-3; 4.71 µM (inactive) in the experiment on COLO 205. In addition, the GI50 in the experiment on KM12 is 7.94 µM (inactive); in the experiment with SF-539 it was 7.53 µM (inactive); in the experiment on SN12C, 15 µM (inactive); with EKVX it was 12.6 µM (inactive); in the experiment with HT-29 it was 8.49 µM (inactive); with OVCAR-3 it was 15.8 µM (inactive). For the same compound, the GI50 with MDA-MB-435 is 17.3 µM (inactive); in the experiment on UACC-62, 5.31 µM (inactive).

With `COc1ccc(OC)c(-c2nc3n(c2/C=C2/C(=O)Nc4ccccc42)CCS3)c1`, the GI50 in the experiment with OVCAR-5 is > 100 µM (inactive); in the experiment on MOLT-4, 27 µM (inactive); in the experiment with HL-60 it was 33.9 µM (inactive); with UACC-257, 63.1 µM (inactive); in the experiment on SF-268 it was 67.5 µM (inactive); in the experiment with RPMI-8226, 35 µM (inactive). Besides, the GI50 in the experiment with MDA-MB-231 was 25.6 µM (inactive); with NCI-H522, 34 µM (inactive); in the experiment on HCT-116, 45.2 µM (inactive); in the experiment on SK-MEL-28, > 100 µM (inactive); in the experiment on SK-OV-3 it was 72.9 µM (inactive); in the experiment with COLO 205 it was 39.5 µM (inactive). Moreover, the GI50 is 30.1 µM (inactive) in the experiment with KM12; 47.9 µM (inactive) in the experiment with SF-539; 65.8 µM (inactive) in the experiment with SN12C; > 100 µM (inactive) in the experiment on EKVX; 47.6 µM (inactive) in the experiment with HT-29; 36.1 µM (inactive) in the experiment with OVCAR-3. The values for the GI50 in the experiment on MDA-MB-435 and with UACC-62 were 17.5 µM (inactive) and 48.4 µM (inactive), respectively.

For `O=C1c2cccnc2C(=O)c2c1nc1ccccc1c2-c1cncc(-c2c3c(nc4ccccc24)C(=O)c2cccnc2C3=O)c1`, the GI50 was 1.8 µM (inactive) in the experiment with OVCAR-5; 0.117 µM (active) in the experiment with MOLT-4; 0.0687 µM (active) with HL-60; 0.318 µM (active) with UACC-257; 0.159 µM (active) with SF-268; 0.141 µM (active) in the experiment on RPMI-8226. For the same compound, the GI50 is 0.237 µM (active) in the experiment on MDA-MB-231; 0.103 µM (active) in the experiment with NCI-H522; 0.139 µM (active) with HCT-116; 0.22 µM (active) in the experiment with SK-MEL-28; 0.363 µM (active) in the experiment with SK-OV-3; 0.525 µM (active) in the experiment on COLO 205. Further, the GI50 is 0.212 µM (active) in the experiment with KM12; 2.19 µM (inactive) in the experiment on SF-539; 0.126 µM (active) in the experiment with SN12C; 0.264 µM (active) with EKVX; 0.327 µM (active) in the experiment with HT-29; 0.0752 µM (active) with OVCAR-3. Moreover, the GI50 was 0.256 µM (active) in the experiment on MDA-MB-435 and 0.474 µM (active) in the experiment on UACC-62.

Take `CCOC(=O)C(Cc1ccc(N(CCCl)CCCl)cc1)NC(=O)CCCN1C(=O)CN=C(c2ccccc2)c2cc(Cl)ccc21` (stereo not given): the GI50 is > 100 µM (inactive) with OVCAR-5; 2.44 µM (inactive) in the experiment on MOLT-4; 2.21 µM (inactive) with HL-60; 3.6 µM (inactive) in the experiment with UACC-257; 4.01 µM (inactive) in the experiment with SF-268; 3.48 µM (inactive) in the experiment with RPMI-8226. The GI50 is 22.1 µM (inactive) in the experiment with MDA-MB-231; 3.03 µM (inactive) in the experiment with NCI-H522; 21 µM (inactive) in the experiment on HCT-116; 3.03 µM (inactive) with SK-MEL-28; > 76.2 µM (inactive) in the experiment on SK-OV-3; 16.2 µM (inactive) in the experiment on COLO 205. Moreover, the GI50 is 25.5 µM (inactive) with KM12; 6.37 µM (inactive) in the experiment with SF-539; 4.43 µM (inactive) in the experiment on SN12C; 41.3 µM (inactive) in the experiment with EKVX; 15.3 µM (inactive) in the experiment on HT-29; 2.22 µM (inactive) with OVCAR-3. Further, the figures for the GI50 in the experiment with MDA-MB-435 and with UACC-62 were 16.1 µM (inactive) and 2.72 µM (inactive), respectively.
